Experimental data: patent US20050154537A1, “Methods, program products, and systems for single and multi-agent dosing and other related methods” (priority 2003, published 2005)

Columns and labels:
Assay type in all cases: in vivo
Platelets = experiment: Lookup table: marker validity (nadir) window, Platelets; conditions: days elapsed between current dose and marker
Source text: (§1) A lookup table has been constructed (see above example), in the form of a table, to represent the relationship of each trial Agent and its qualified Clinical Markers. This table includes information regarding the Maximum Dose and the Inverse Marker Applicability for each Agent. The gray cells on the Cycle Dose Modifier indicate these values.
(§2) The table also includes information regarding the nadir of applicability for each Agent—Marker combination. The range, in days and indicated as the Lower Limit and Upper limit, has been determined by calculating a percentage (20%) above and below the true nadir value when only a single value is known. Otherwise, the upper and lower nadir values are used. […] The values of Upper and Lower limits is shown as a property of the Association between Markers and Agents. The Relevancy of a Marker can be computed using the lookup table by comparing the number of days elapsed between the date of the application of the current dose and the date on which the Marker was taken to the upper and lower values for that Agent Marker Association. If the elapsed days are greater than or equal to the lower limit and less than or equal to the upper limit, then the calculations provided by the Cycle Dose Modifier are said to be relevant and thereby applicable as indicated in the yellow Marker Validity cell. The Relevancy of Cycle Dose Modifier Calculations for Agent 1 is based on the Validity of Marker for Agent 1 calculated by: =IF(and((($B13−B6)>=VLOOKUP(B$3,Validity!$A$3:$K$8,10)),((B$13−B6)<=VLOOKUP(B$3,Validity!$A$3:$K$8,11))),“valid”,“invalid”)

Neutrophil Count (ANC) [1] = experiment: Lookup table: marker validity (nadir) window, Neutrophil Count (ANC); conditions: days elapsed between current dose and marker
Source text: as §1, §2

Hemoglobin (Hgb) = experiment: Lookup table: marker validity (nadir) window, Hemoglobin (Hgb); conditions: days elapsed between current dose and marker
Source text: as §1, §2

Neutrophil Count (ANC) [2] = experiment: Chemotherapeutic triplet cycle dose modifier (Taxol, Gemzar, Carboplatin), toxicity marker; conditions: patient on triplet
Source text: Table 3 illustrates a method of revising a drug dose in treating a patient with three pharamcologic and non-pharmacological modalities to optimize pharmacologic outcome, e.g., to reduce risk of an adverse drug event while assessing the clinical relevancy and validity of the measured surrogate markers. Previous Level of Toxicity-Efficacy (PLTE) is a value directly entered such as from a lab report. It is the numerical value of the marker of toxicity or efficacy reported at the previous dose cycle adjustment (evaluated at a specified elapsed time sufficient to capture the nadir of the dose effect). The surrogate marker is selected when the dose modifier is constructed. Current Level of Toxicity-Efficacy (CLTE) is a value directly entered such as from a lab report. It is the numerical value of the marker of toxicity or efficacy reported with the current dose cycle. The surrogate marker is that value that illustrates the expression of the toxicity or efficacy of the agent on a specific and pre-selected value determined when the dose modifier is constructed. […] If valid the value is fully appreciated and the dose modification can be calculated. […] The range, in days and indicated as the Lower Limit and Upper limit, has been determined by calculating a percentage (20%) above and below the true nadir value when only a single value is known. […]

Platelets LL (Platelets; lower limit of nadir range): 8 days
Platelets UL (Platelets; upper limit of nadir range): 11 days
Neutrophil Count (ANC) LL (Neutrophil Count (ANC) [1]; lower limit of nadir range): 8 days
Neutrophil Count (ANC) UL (Neutrophil Count (ANC) [1]; upper limit of nadir range): 11 days
Hemoglobin (Hgb) LL (Hemoglobin (Hgb); lower limit of nadir range): 8 days
Hemoglobin (Hgb) UL (Hemoglobin (Hgb); upper limit of nadir range): 11 days
Structure (SMILES): CC(=O)O[C@H]1C(=O)[C@@]2(C)[C@H]([C@H](OC(=O)c3ccccc3)[C@]3(O)C[C@H](OC(=O)[C@H](O)[C@@H](NC(=O)c4ccccc4)c4ccccc4)C(C)=C1C3(C)C)[C@]1(OC(C)=O)CO[C@@H]1C[C@@H]2O [Taxol]
Current Level of Toxicity/CLTEM1 (Neutrophil Count (ANC) [2]; current cycle total dose Taxol 450.00, Gemzar 7000.00, Carboplatin 650.00, marker Oct. 30, 2004): 0.80
Previous Level of Toxicity/PLTEM1 (Neutrophil Count (ANC) [2]; previous cycle total dose Taxol 400.00, Gemzar 8000.00, Carboplatin 600.00): 0.40
